Legend:
MEKK1 in SW480 cells = test: MEKK1 cleavage and activation (Western blot, autophosphorylation); type: cell-based, human
Protocol: FIG. 3B: SW480 cells were treated with Compound A (1 μM) and collected after either 1 or 2 days and the cell lysates were assayed for MEKK1 cleavage by Western blotting with anti-MEKK1 antibody. Minus (−) indicates DMSO treated control cells.
We then examined the effect of a SAAND on MEKK1, a protein kinase immediately upstream of SEK1. […] Previous studies indicate that MEKK1 is cleaved during activation by caspases (19). […] It is not clear, however, whether cGMP-activated PKG directly activates MEKK1 or whether the cleavage and activation of MEKK1 is an indirect effect of the process of apoptosis.

PDE 5 (i.e., peak A) = PDE 5 (i.e., peak A) (Homo sapiens, UniProt O76074); test: Competitive binding with cGMP; details: PDE 5 (peak A)
PDE peak B = test: Competitive binding with cGMP
[1] = tested on: JNK1 in SW480 colon cancer cells; test: JNK1 immunoprecipitation in vitro kinase assay with GST-c-Jun(1-79); type: cell-based, human; details: SW480 cells
Protocol: The cells were lysed, JNK1 immunoprecipitated with an anti-JNK1 antibody, and the immunoprecipitate (“IP”) assayed for in vitro kinase activity with GST-c-Jun(1-79) as the substrate. The experiments were repeated three times with similar results. Fold activation was measured using a Phosphor Imager.
FIG. 1B: SW480 cells were treated with Compound A (1 μM) for the indicated time periods and in vitro JNK1 kinase activity was determined as described above.
FIG. 2A SW480 cells were treated with either DMSO (−) or Compound A, 0.1 μM; dbcGMP, 500 μM; YC-1, 50 μM; MY-5445, 50 μM; dipyridamole, 10 μM or dbcAMP, 500 μM for one hour. The cells were lysed, JNK1 immunoprecipitated, and the IP assayed for in vitro kinase activity as described in FIG. 1A.
FIG. 2B SW480 cells were pre-treated with either DMSO, KT5720 (2 μM) or Rp-8-pCPT-cGMPS (2 μM) for 2 hours and then treated with Compound B (0, 1 or 10 μM) for one hour. The cells were lysed and assayed for JNK1 activation in the IP as described above.
These concentrations were chosen since they provided optimal induction of apoptosis. Endogenous JNK1 was immunoprecipitated with anti-JNK1 antibody and in vitro kinase assays were performed with GST-c-Jun(1-79) as the substrate. […]
However, the precise role of PKG in signal transduction pathways is not known. […] As a control, KT5720 was used as a protein kinase A (“PKA”)-specific inhibitor. SW480 cells were treated with either DMSO, KT5720 (2 μM) or Rp-8-pCPT-cGMPS (2 μM) for 2 hours and then treated with either DMSO or Compound B (1 or 10 μM) for one hour. Cell extracts were collected and assayed for JNK1 activation.

SEK1 in SW480 cells = test: SEK1 phosphorylation by Western blot (anti-phospho-SEK1 Thr223); type: cell-based, human; details: Compound A 1 μM
Protocol: FIG. 3A: SW480 cells were treated with Compound A (1 μM), collected at the indicated time points, and cell lysates assayed for SEK1 activation by Western blotting with anti-phospho-SEK1 (Thr223) antibody. Fold increase in phosphorylation was measured by densitometry. The experiment was repeated three times with similar results.
To further characterize the signal transduction pathway involved in the above-described JNK1 activation, we tested whether SEK1, the protein kinase immediately upstream of JNK1, was also activated by a SAAND. Activation of SEK1 occurs through phosphorylation of two residues of this protein, Ser219 and Thr223, by the protein kinase MEKK1. SW480 cells were treated with Compound A (1 μM) for various times, up to 6 hours, and extracts were analyzed by Western blot analysis using a phospho-Thr223-specific SEK1 antibody. The treatment with Compound A induced increased phosphorylation of SEK1, within 15-30 minutes, without changing the total cellular level of the endogenous SEK1 protein (see, FIG. 3A). By 1 hour there was a 9-fold induction, and this effect persisted for at least 6 hours (FIG. 3A).

[2] = target: T1, GST-cGB-PDE5 fusion protein (cGMP binding sites of human PDE5A) (Homo sapiens, UniProt O76074); test: cGMP binding assay (3H-cGMP competition); details: 3H-cGMP 2 μM, 22° C., 1 hour
T1 construct: made in house; host or cells: E. coli BL21 (DE3)

caspase-3 in SW480 cells = test: Caspase-3 activity with Ac-DEVD-AFC substrate; type: cell-based, human; details: 24 hours, sulindac sulfide 200 μM, exisulind 600 μM, Compound A 1 μM, Compound B 10 μM
Protocol: The cells were lysed and the extracts assayed for caspase-3 activity using Ac-DEVD-AFC as the substrate, in the presence or absence of the caspase-3 inhibitor Ac-DEVD-CHO. Caspase-3 activity was calculated by subtracting the AFC fluorescence (excitation; 400 nm, emission; 505 nm) in the presence of Ac-DEVD-CHO from the AFC fluorescence in the absence of Ac-DEVD-CHO.
Protein extracts were then prepared and caspase-3 activity was measured with Ac-DEVD-AFC as the substrate, in the presence or absence of the caspase-3 inhibitor Ac-DEVD-CHO. […] Similar findings were obtained with HCT116 and HT29 cells (data not shown).

PARP in SW480 cells = test: PARP cleavage by Western blot; type: cell-based, human; details: SW480 cells, Compound A 1 μM, 2 days
Protocol: SW480 cells were pre-treated with either DMSO (−) or Rp-8-pCPT-cGMPS (2 μM) for 2 hours and then treated with either DMSO (−) or Compound A (1 μM). Both the floating and attached cells were collected after 2 days, and the cell lysates were assayed for PARP cleavage by Western blotting with anti-PARP antibody. Fold increase in PARP cleavage was measured by densitometry of the 85 kD fragment.
Finally, we investigated whether activation of the PKG pathway is required for the induction of apoptosis by SAANDs. SW480 cells were treated with either DMSO or the PKG inhibitor Rp-8-pCPT-cGMPS (2 μM) for 2 hours and then the cells were treated with either DMSO or Compound A (1 μM) for 2 days. Both the floating and attached cells were collected, and the cell lysates were assayed for poly (ADP-ribose) polymerase (PARP) cleavage by Western blotting with an anti-PARP antibody. PARP is a 116 kD nuclear enzyme that converts NAD to nicotinamide and protein-linked ADP-ribose polymers, which are important for DNA repair and genomic maintenance. In cells that are undergoing apoptosis the 116 kD PARP protein is cleaved by caspase-3 into 85 and 25 kD fragments, thus resulting in loss of normal PARP function. This inactivation of PARP apparently prevents depletion of cellular levels of NAD and ATP, which are thought to be required for later events in apoptosis.

competitive binding with cGMP (PDE 5 (i.e., peak A)): competitively (with cGMP) bind
competitive binding with cGMP (PDE peak B): competitively (with cGMP) binds
Compound: COc1cc(/C=C2/C(C)=C(CC(=O)NCc3ccccc3)c3cc(F)ccc32)cc(OC)c1OC [Compound A, (Z)-5-fluoro-2-methyl-(3,4,5-trimethyl-oxybenzylidene)-3-(N-benzyl)-indenylacetamide]
MEKK1 activity (autophosphorylation and phosphorylation of GST-SEK1) (MEKK1 in SW480 cells): strong and transient activation of MEKK1 activity
MEKK1 cleavage (MEKK1 in SW480 cells; Compound A 1 μM, one or two days): cleavage of this protein
duration of sustained JNK1 activation ([1]; Compound A 1 μM, time course): at least 24 hours
JNK1 activation ([1]; one hour, sulindac sulfide 50-500 μM, exisulind 100-600 μM, Compound A 0.1-5 μM, Compound B 1-50 μM): activated JNK1
persistence of SEK1 phosphorylation (SEK1 in SW480 cells): at least 6 hours
time to increased phosphorylation of SEK1 (SEK1 in SW480 cells): 15 to 30 min
induction of SEK1 phosphorylation (SEK1 in SW480 cells; by 1 hour): 9 fold
competition with cGMP for the cGMP binding sites of GST-cGB-PDE5 [2]: None of the PDE5 inhibitors showed any competition with cGMP
caspase-3 activation (caspase-3 in SW480 cells): led to activation of caspase-3
PARP cleavage (PARP in SW480 cells): induced PARP cleavage

— patent US6569638B1, “Method for screening compounds for the treatment of neoplasia” (Cell Pathways, Inc, priority 2000, dated 2003)
